Reference: ChEMBL document CHEMBL4043139, “Fluoro and pentafluorothio analogs of the antitumoral curcuminoid EF24 with superior antiangiogenic and vascular-disruptive effects” (Bioorg Med Chem, 2017)
The source made the active and inactive calls. No cut-off for these calls is given here.

Assays:
[1] = system: HT-29; assay: Cell cycle arrest in human HT-29 cells assessed as accumulation at S phase at 2.5 uM after 24 hrs by propidium iodide staining based flow cytometric analysis (reference value: 15.6 +/- 0.3%); type: functional
[2] = system: HT-29; assay: Cell cycle arrest in human HT-29 cells assessed as accumulation at sub-G1 phase at 1 uM after 24 hrs by propidium iodide staining based flow cytometric analysis (reference value: 0.9 +/- 0.1%); type: functional
[3] = system: 518A2; assay: Anti-migratory activity in human 518A2 cells assessed as wound closure at 250 nM after 48 hrs by light microscopic analysis (reference value: 100%); type: functional
[4] = system: 518A2; assay: Anti-migratory activity in human 518A2 cells assessed as wound closure at 250 nM after 24 hrs by light microscopic analysis; type: functional, cell-based
[5] = system: Gallus gallus; assay: Vascular disruptive activity in 6 days post fertilized chicken egg chorioallantoic/vitelline membrane assessed as disruption of capillary reticulation at 10 nmol administered topically measured after 6 hrs by stereo-microscopic analysis; type: functional
[6] = Cytotoxicity against HDFa after 72 hrs by MTT assay; type: cell-based; details: Homo sapiens
[7] = system: HT-29; assay: Cell cycle arrest in human HT-29 cells assessed as accumulation at G1 phase at 2.5 uM after 24 hrs by propidium iodide staining based flow cytometric analysis (reference value: 68 +/- 0.9%); type: functional
[8] = system: HT-29; assay: Cell cycle arrest in human HT-29 cells assessed as accumulation at sub-G1 phase at 5 uM after 24 hrs by propidium iodide staining based flow cytometric analysis (reference value: 0.9 +/- 0.1%); type: functional
[9] = system: HT-29; assay: Cytotoxicity against human HT-29 cells after 72 hrs by MTT assay; type: functional, cell-based; details: for IC50: HT-29, 72 h
[10] = system: HT-29; assay: Cell cycle arrest in human HT-29 cells assessed as accumulation at S phase at 1 uM after 24 hrs by propidium iodide staining based flow cytometric analysis (reference value: 15.6 +/- 0.3%); type: functional
[11] = system: HT-29; assay: Cell cycle arrest in human HT-29 cells assessed as accumulation at G2/M phase at 1 uM after 24 hrs by propidium iodide staining based flow cytometric analysis (reference value: 15.5 +/- 0.5%); type: functional
[12] = system: 518A2; assay: Cytotoxicity against human 518A2 cells after 72 hrs by MTT assay; type: functional, cell-based; details: for IC50: 518A2, 72 h
[13] = system: HT-29; assay: Cell cycle arrest in human HT-29 cells assessed as accumulation at sub-G1 phase at 2.5 uM after 24 hrs by propidium iodide staining based flow cytometric analysis (reference value: 0.9 +/- 0.1%); type: functional
[14] = system: HT-29; assay: Cell cycle arrest in human HT-29 cells assessed as accumulation at G2/M phase at 5 uM after 24 hrs by propidium iodide staining based flow cytometric analysis (reference value: 15.5 +/- 0.5%); type: functional
[15] = system: U-87MG ATCC; assay: (§1) Cytotoxicity against human U87 cells after 72 hrs by MTT assay; type: functional, cell-based
[16] = as §1; type: functional, cell-based, U-87MG ATCC; details: U-87 MG
[17] = system: U-87MG ATCC; assay: Anti-vasculogenic activity in human U87 cells assessed as reduction in formation of blood-vessel like tubular structures at 2.5 uM after 24 hrs by matrigel based light microscopic analysis; type: functional, cell-based
[18] = system: HT-29; assay: Upregulation of cyclin B1 expression in human HT-29 cells at 1 to 2.5 uM after 24 hrs by Western blot analysis; type: functional, cell-based
[19] = species on record: Homo sapiens; assay: Inhibition of NF-kappaB in human 518A2 cells assessed as reduction in p65 subunit expression at 1 to 2 uM after 24 hrs by Western blot analysis; type: cell-based
[20] = system: HT-29; assay: Cell cycle arrest in human HT-29 cells assessed as accumulation at G2/M phase at 2.5 uM after 24 hrs by propidium iodide staining based flow cytometric analysis (reference value: 15.5 +/- 0.5%); type: functional
[21] = system: Gallus gallus; assay: Vascular disruptive activity in 6 days post fertilized chicken egg assessed as area covered by blood vessels at 10 nmol administered topically measured after 6 hrs by light microscopic analysis relative to control; type: functional
[22] = system: DLD-1; assay: Cytotoxicity against human DLD1 cells after 72 hrs by MTT assay; type: functional, cell-based; details: for IC50: DLD-1, 72 h
[23] = system: HT-29; assay: Cell cycle arrest in human HT-29 cells assessed as accumulation at G1 phase at 5 uM after 24 hrs by propidium iodide staining based flow cytometric analysis (reference value: 68 +/- 0.9%); type: functional
[24] = system: U-87MG ATCC; assay: Anti-vasculogenic activity in human U87 cells assessed as reduction in formation of cord-like structures at 2.5 uM after 24 hrs by matrigel based light microscopic analysis; type: functional, cell-based
[25] = (§2) Cytotoxicity against human MCF7/Topo cells after 72 hrs by MTT assay; type: functional, cell-based
[26] = system: MCF7/Topo; assay: as §2; type: functional, cell-based
[27] = system: HT-29; assay: Cell cycle arrest in human HT-29 cells assessed as accumulation at G1 phase at 1 uM after 24 hrs by propidium iodide staining based flow cytometric analysis (reference value: 68 +/- 0.9%); type: functional
[28] = system: HCT-116; assay: Cytotoxicity against human HCT116 cells after 72 hrs by MTT assay; type: functional, cell-based; details: for IC50: HCT-116, 72 h
[29] = system: HT-29; assay: Cell cycle arrest in human HT-29 cells assessed as accumulation at S phase at 5 uM after 24 hrs by propidium iodide staining based flow cytometric analysis (reference value: 15.6 +/- 0.3%); type: functional
[30] = system: KB-V1/Vbl; assay: (§3) Cytotoxicity against human KB-V1/Vbl cells after 72 hrs by MTT assay; type: functional, cell-based
[31] = as §3; type: functional, cell-based
[32] = system: Gallus gallus; assay: Vascular disruptive activity in 6 days post fertilized chicken egg chorioallantoic/vitelline membrane assessed as degradation of blood vessels at 10 nmol administered topically measured after 6 hrs by stereo-microscopic analysis; type: functional
[33] = Cytotoxicity against human U87 cells assessed as cell viability at 10 nmol after 24 hrs by MTT assay relative to control; type: cell-based, U-87MG ATCC; details: read-out: Activity
[34] = system: PANC-1; assay: Cytotoxicity against human PANC1 cells after 72 hrs by MTT assay; type: functional, cell-based; details: for IC50: PANC-1, 72 h
[35] = system: U-87MG ATCC; assay: Anti-vasculogenic activity in human U87 cells assessed as reduction in formation of blood-vessel like tubular structures at 1.5 uM after 24 hrs by matrigel based light microscopic analysis; type: functional, cell-based
[36] = species on record: Homo sapiens; assay: Inhibition of NF-kappaB in human 518A2 cells assessed as reduction in p65 subunit expression at 0.5 to 1 uM after 24 hrs by Western blot analysis; type: cell-based
[37] = system: HT-29; assay: Upregulation of cyclin B1 expression in human HT-29 cells at 2.5 to 5 uM after 24 hrs by Western blot analysis; type: functional, cell-based
[38] = system: Gallus gallus; assay: Vascular disruptive activity in 6 days post fertilized chicken egg chorioallantoic/vitelline membrane assessed as degradation of blood vessels at 10 nmol administered topically measured after 6 to 24 hrs by stereo-microscopic analysis; type: functional
[39] = species on record: Danio rerio; assay: Antiangiogenic activity in 72 hrs post fertilized zebra fish embryo harboring fli1a:EGFP assessed as area of subintestinal veins at 5 uM after 48 hrs by fluorescence microscopic analysis (reference value: 100%); type: functional
[40] = system: U-87MG ATCC; assay: Anti-vasculogenic activity in human U87 cells assessed as reduction in formation of cord-like structures at 1.5 uM after 24 hrs by matrigel based light microscopic analysis; type: functional, cell-based
[41] = system: U-87MG ATCC; assay: Vascular disruptive activity in human U87 cells assessed as disruption of preformed tubular networks at 1 uM after 24 hrs by matrigel based light microscopic analysis; type: functional, cell-based
[42] = Cytotoxicity against human U87 cells assessed as effect on cell viability at 1 uM after 24 hrs by MTT assay; type: cell-based; details: u-87mg atcc
[43] = system: Gallus gallus; assay: Vascular disruptive activity in 6 days post fertilized chicken egg chorioallantoic/vitelline membrane at 10 nmol administered topically measured up to 24 hrs by stereo-microscopic analysis; type: functional
[44] = system: Gallus gallus; assay: Vascular disruptive activity in 6 days post fertilized chicken egg chorioallantoic/vitelline membrane at 10 nmol administered topically measured after 24 hrs by stereo-microscopic analysis; type: functional
[45] = system: U-87MG ATCC; assay: Anti-vasculogenic activity in human U87 cells assessed as reduction in formation of small stray colonies at 2.5 uM after 24 hrs by matrigel based light microscopic analysis; type: functional, cell-based
[46] = system: Gallus gallus; assay: Toxicity in 6 days post fertilized chicken egg at 10 nmol administered topically; details: in vivo, topical_or_ocular, 144 h

CN1C/C(=C\c2c(F)cc(F)cc2F)C(=O)/C(=C/c2c(F)cc(F)cc2F)C1
Activity [1]: 7.4% | Activity [2]: 5% | Activity [3]: Active | Activity [4]: Active | Activity [5]: Active | IC50 [6]: > 10000 nM | Activity [7]: 25.5% | Activity [8]: 32.7% | Activity [9]: Dose-dependent effect | IC50 [9]: > 10000 nM | Activity [10]: 18.3% | Activity [11]: 17.8% | Activity [12]: Dose-dependent effect | IC50 [12]: > 10000 nM | Activity [13]: 30.1% | Activity [14]: 36.9% | Activity [15]: Dose-dependent effect | IC50 [16]: > 10000 nM | Activity [17]: inactive | Activity [18]: Active | inhibition [19]: Active | Activity [20]: 37% | Activity [21]: 40% | Activity [22]: Dose-dependent effect | IC50 [22]: > 10000 nM | Activity [23]: 22.2% | Activity [24]: inactive | IC50 [25]: 2100 nM | Activity [26]: Dose-dependent effect | Activity [27]: 58.9% | Activity [28]: Dose-dependent effect | IC50 [28]: > 10000 nM | Activity [29]: 8.1% | Activity [30]: Dose-dependent effect | IC50 [31]: 820 nM | Activity [32]: Active | viability at 24 h, 10 nmol [33]: > 85% | Activity [34]: Dose-dependent effect | IC50 [34]: > 10000 nM

O=C1/C(=C/c2ccccc2F)CNC/C1=C\c1ccccc1F
Activity [1]: 22.3% | Activity [2]: 3.3% | IC50 [6]: 8500 nM | Activity [7]: 38.9% | Activity [8]: 7.1% | Activity [9]: Dose-dependent effect | IC50 [9]: 1600 nM | Activity [10]: 21% | Activity [11]: 16.6% | Activity [12]: Dose-dependent effect | IC50 [12]: 1800 nM | Activity [35]: Active | Activity [13]: 12.9% | Activity [14]: 34.4% | Activity [15]: Dose-dependent effect | IC50 [16]: 1400 nM | inhibition [36]: Active | Activity [37]: Active | Activity [20]: 25.9% | Activity [21]: 43% | Activity [22]: Dose-dependent effect | IC50 [22]: 1300 nM | Activity [23]: 35.8% | Activity [38]: Active | Activity [39]: 74% | IC50 [25]: 2200 nM | Activity [26]: Dose-dependent effect | Activity [40]: Active | Activity [41]: Active | Activity [27]: 59.1% | Activity [28]: Dose-dependent effect | IC50 [28]: 1500 nM | Activity [29]: 22.6% | Activity [30]: Dose-dependent effect | IC50 [31]: 1100 nM | Activity [42]: Non-Toxic | viability at 24 h, 10 nmol [33]: > 85% | Activity [34]: Dose-dependent effect | IC50 [34]: 1500 nM

COc1cc(/C=C/C(=O)CC(=O)/C=C/c2ccc(O)c(OC)c2)ccc1O
Activity [43]: inactive | Activity [21]: inactive

CN1C/C(=C\c2cc(F)c(F)cc2F)C(=O)/C(=C/c2cc(F)c(F)cc2F)C1
Activity [1]: 13% | Activity [2]: 2.3% | Activity [3]: Active | Activity [4]: Active | Activity [5]: Active | IC50 [6]: > 10000 nM | Activity [7]: 46.8% | Activity [8]: 19.7% | Activity [9]: Dose-dependent effect | IC50 [9]: 840 nM | Activity [44]: inactive | Activity [10]: 18.7% | Activity [11]: 17.7% | Activity [12]: Dose-dependent effect | IC50 [12]: 1600 nM | Activity [13]: 17% | Activity [14]: 23.7% | Activity [15]: Dose-dependent effect | IC50 [16]: 3100 nM | inhibition [36]: Active | Activity [17]: inactive | Activity [18]: Active | Activity [20]: 23.2% | Activity [21]: 44% | Activity [22]: Dose-dependent effect | IC50 [22]: 1800 nM | Activity [23]: 28.2% | Activity [24]: inactive | Activity [39]: 39% | IC50 [25]: 1600 nM | Activity [26]: Dose-dependent effect | Activity [41]: Active | Activity [27]: 61.3% | Activity [28]: Dose-dependent effect | IC50 [28]: 1500 nM | Activity [29]: 28.3% | Activity [30]: Dose-dependent effect | IC50 [31]: 720 nM | Activity [32]: Active | Activity [42]: Non-Toxic | Activity [45]: inactive | viability at 24 h, 10 nmol [33]: > 85% | Activity [34]: Dose-dependent effect | IC50 [34]: 1600 nM | Activity [46]: Non-Toxic
